Earlier results as cited in patent US7205279B2, “Pharmaceutical compositions” (Novartis AG, priority 1995, dated 2007).

Conditions: room temperature

solubility in water: 8.5 g per 100 ml
Structure (SMILES): CCOC(C)=O [Ethyl acetate]
